Measured values reported in patent US5519001A, “CETP inhibitor polypeptide antibodies against the synthetic polypeptide and prophylactic and therapeutic anti-atherosclerosis treatments” (Southwest Foundation for Biomedical Research, priority 1995, dated 1996).
Each block holds one molecule with its values, some of them ahead of it. Ends that are not written are not given here.

Assays:
CETP = assay: Cholesteryl ester transfer assay (3H CE-HDL to VLDL+LDL, baboon LPDS as CETP source); type: biochemical; details: for effect on transfer of CE from HDL to VLDL+LDL: electroeluted from gels, increasing concentrations, lipoproteins from low HDL1 baboons; for inhibitory activity of CETP: in vitro, result in words
Protocol: The CE transfer activity of a sample was assayed by a modification of a procedure described previously (Kushwaha et al, (1986), supra). Briefly, ^3 H CE-labeled HDL3 containing 50-100 μg of CE from low HDL1 baboons was incubated with VLDL+LDL containing 100-300 μg CE in the presence of LPDS. The acceptor lipoproteins and the LPDS were obtained from low HDL1 baboon plasma (chow diet). In some cases, the HDL3 was obtained from high HDL1 baboons maintained on the HCHF diet. The incubations were carried out at 4° C. (control) and 37° C. for 4-6 hrs, and terminated by placing the samples on ice. The assay mixture was then ultracentrifuged to separate VLDL+LDL having a d>1.040 g/ml, and the radioactivity in the lipoproteins was counted as described previously (Kushwaha et al, (1986), supra). Any difference observed in the radioactivity transferred from HDL to VLDL+LDL at 4° C. and 37° C. was attributed to CETP activity in the LPDS. Time course experiments gave a linear response up to 7 hrs. Similarly, the CETP activity was linear with increasing LPDS, up to 140 μl LPDS, which was derived from an equivalent volume of plasma. The polypeptide of the invention, and synthetic fragments thereof were added to the reaction mixture to determine their CETP inhibitory activities, along with an appropriate synthetic control peptide. The percent difference between the control experiment and the assay with inhibitor peptide was expressed as the inhibitor activity. A CE transfer assay as described in Example 4 above was conducted using HDL1 baboon plasma, ^3 H HDL, and the VLDL+LDL carriers, in the presence of CETP enzyme to mediate the exchange. The reactions were conducted at 37° C. and at 4° C. (control) in duplicate.

Human CETP = target: T1, Human CETP (Homo sapiens, UniProt P11597); assay: Inhibition of human CETP by synthetic CETP inhibitor peptide (human LPDS); type: biochemical; details: 100 μg peptide, HDL 10 μg, VLDL+LDL 50 μg, CETP 200 μl, 37 °C
T1 construct: To isolate human CETP, blood (5-10 ml) from human subjects was obtained in tubes containing EDTA; from tissue; host or cells: human plasma of individual donors, supernatant after heparin/MnCl2 and dextran sulfate precipitation of lipoproteins
T1 sequence (P11597 18-493): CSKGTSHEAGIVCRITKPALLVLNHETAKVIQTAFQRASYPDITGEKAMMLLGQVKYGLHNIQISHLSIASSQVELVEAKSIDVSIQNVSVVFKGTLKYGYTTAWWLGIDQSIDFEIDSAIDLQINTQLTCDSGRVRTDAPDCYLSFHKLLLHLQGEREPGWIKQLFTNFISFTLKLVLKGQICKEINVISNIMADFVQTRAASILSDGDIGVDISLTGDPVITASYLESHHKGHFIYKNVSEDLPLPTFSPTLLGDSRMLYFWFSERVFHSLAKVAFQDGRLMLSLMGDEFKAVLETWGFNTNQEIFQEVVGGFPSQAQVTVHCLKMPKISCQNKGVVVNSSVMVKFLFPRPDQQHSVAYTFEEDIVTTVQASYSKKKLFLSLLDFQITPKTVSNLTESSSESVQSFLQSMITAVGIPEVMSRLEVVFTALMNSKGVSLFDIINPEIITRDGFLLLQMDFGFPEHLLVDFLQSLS

[1] = target: baboon plasma cholesteryl ester transfer protein (CETP), supplied as lipoprotein-deficient serum (LPDS, d>1.21 g/ml) from low HDL1 baboon plasma (baboon (papio sp.))

Molecule: 4 kD polypeptide: endogenous CETP inhibitor polypeptide of molecular weight 4,000 electroeluted from lipoproteins of high HDL1 baboons (DVSSALDKLKEFGNTLEDKAWEVINRIKQSEFPAKT)
effect on transfer of CE from HDL to VLDL+LDL (CETP): significantly inhibited CETP activity

Inhibition (%) (Human CETP; human CETP source AB (S.N. 6)): 60%
Inhibition (%) (Human CETP; human CETP source EJ (S.N. 3)): 85%
Inhibition (%) (Human CETP; human CETP source EW (S.N. 11)): 71%
Inhibition (%) (Human CETP; human CETP source GL (S.N. 7)): 85%
Inhibition (%) (Human CETP; human CETP source KC (S.N. 8)): 83%
Inhibition (%) (Human CETP; human CETP source KR (S.N. 5)): 82%
Inhibition (%) (Human CETP; human CETP source ML (S.N. 12)): 77%
Inhibition (%) (Human CETP; human CETP source RK (S.N. 2)): 72%
Inhibition (%) (Human CETP; human CETP source SH (S.N. 1)): 60%
Inhibition (%) (Human CETP; human CETP source TH (S.N. 9)): 86%
Inhibition (%) (Human CETP; human CETP source UM (S.N. 10)): 90%
Molecule: APDVSSALDKLKEFGNTLEDKAWEVINRIKQSEFPAKT [SEQ. ID. NO:2]

Molecule: Albumin [reference compound]
effect on transfer of CE from HDL to VLDL+LDL (CETP): no effect

Molecule: SEQ. ID. NO:1: synthetic 36 amino acid peptide, sequence of the 4 kD baboon CETP inhibitor, common with N-terminal fragment of apo C-I (DVSSALDKLKEFGNTLEDKAWEVINRIKQSEFPAKT)
inhibition of CE transfer from HDL to VLDL and LDL (CETP; 50 μg peptide, lipoproteins of low HDL1 baboons): significantly (p<0.01) inhibited
inhibitory activity of CETP (CETP): inhibitory of CETP

Molecule: amino acids 1 to 10: N-terminal fragment of SEQ. ID. NO:1, amino acids 1 to 10 (DVSSALDKLK)
inhibitory activity of CETP (CETP): active as inhibitors of CETP

Molecule: amino acids 1 to 15: N-terminal fragment of SEQ. ID. NO:1, amino acids 1 to 15 (DVSSALDKLKEFGNT)
inhibitory activity of CETP (CETP): active as inhibitors of CETP

Molecule: amino acids 1 to 20: N-terminal fragment of SEQ. ID. NO:1, amino acids 1 to 20 (DVSSALDKLKEFGNTLEDKA)
inhibitory activity of CETP (CETP): active as inhibitors of CETP

Molecule: amino acids 15 to 30: intermediate fragment of SEQ. ID. NO:1, amino acids 15 to 30 (TLEDKAWEVINRIKQS)
inhibitory activity of CETP (CETP): active as inhibitors of CETP

Molecule: amino acids 16 to 36: C-terminal fragment of SEQ. ID. NO:1, amino acids 16 to 36 (21 amino acids) (LEDKAWEVINRIKQSEFPAKT)
inhibitory activity of CETP at 50 μg (CETP; 50 μg peptide): limited inhibitory activity

Molecule: amino acids 28 to 36: C-terminal fragment of SEQ. ID. NO:1, amino acids 28 to 36 (9 amino acids) (KQSEFPAKT)
inhibitory activity of CETP at 50 μg (CETP; 50 μg peptide): limited inhibitory activity
activity inhibitory of CETP at 200 μg (CETP; 200 μg peptide, compared with the 36 amino acid peptide): approximately the same as that of the 36 amino acid peptide

Inhibition (%) of CETP-mediated cholesteryl ester transfer [1]: 52%
Molecule: APDVSSALDKLKEFGNTLEDKAWEVINRIKQSEFPAKT [synthetic CETP inhibitor peptide, baboon apo C-I terminal peptide with 38 amino acids (SEQ ID NO 2)]

Inhibition (%) of CETP-mediated cholesteryl ester transfer [1]: 60%
Molecule: TPDVSSALDKLKEFGNTLEDKARELISRIKQSELSAKM [synthetic CETP inhibitor peptide, human apo C-I terminal peptide with 38 amino acids (SEQ ID NO 3)]
